Results: patent publication US10533015B1, “Opioid receptor antagonist prodrugs” (Nirsum Laboratories, Inc., priority 2019, dated 2020)
Like-named read-outs stand apart in the source and are kept apart here.

How the values were obtained:
[1] = Plasma stability assay, rat plasma; format: in vitro ADME; details: 10 μM, 37° C.
Description: Plasma stability determination of the test compounds in rat, dog, cynomolgus monkey and human plasma is performed using HPLC-MS. For rat, incubations are carried out in 96-well polypropylene plates in 5 aliquots of 70 μL each (one for each time point). […] Five time points are analyzed (0, 15, 120, 480 and 1440 min). For dog, monkey and human, test compounds (2 μM, final solvent concentration 1%) were also incubated at 37° C. and analyzed at five time points (0, 10, 30, 60 and 120 min). All incubations are performed in duplicates. The samples are analyzed by HPLC-MS. The percentage of parent compound remaining after incubation in plasma is determined.

[2] = Polymorph screening of solid state drug substances; details: for Dry method and appearance: after stirring 50 °C 72 hours, dried solid; for XRPD results (Dried): dried solid after 50 °C 72 hours; for Visual observation 50° C. / Visual observation RT: target conc. 100 mg/ml
[3] = heating temp. 60 °C, obs. temp. 25 °C
[4] = heating temp. 40 °C, obs. temp. 40 °C
[5] = heating temp. 60 °C, obs. temp. 40 °C

C=C1CC[C@@]2(O)C3Cc4ccc(OC(=O)OCCCCCCCCCCCCC)c5c4[C@@]2(CCN3CC2CC2)[C@H]1O5 [Compound 30, (4aS,7aS,12bS)-3-(cyclopropylmethyl)-4a-hydroxy-7-methylene-2,3,4,4a,5,6,7,7a-octahydro-1H-4,12-methanobenzofuro[3,2-e]isoquinolin-9-yl tridecyl carbonate]
% remaining at time point ([1]; 0 min): 100%
% remaining at time point ([1]; 15 min): 65.7%
% remaining at time point ([1]; 120 min): 40.3%
% remaining at time point ([1]; 480 min): 30.5%
% remaining at time point ([1]; 1440 min): 22.2%
Approximate Solubility (mg/mL) in Excipient: Cottonseed oil [3]: 252.5 to 404.06 mg/mL
Approximate Solubility (mg/mL) in Excipient: Sesame oil [3]: 252.55 to 398.6 mg/mL
Equilibrium solubility (mg/mL) Water [4]: <0.001 mg/mL

C=C1CC[C@@]2(O)C3Cc4ccc(OCOC(=O)OCCCCCCCCCCCCCC)c5c4[C@@]2(CCN3CC2CC2)[C@H]1O5 [Compound 25, (((4aS,7aS,12bS)-3-(cyclopropylmethyl)-4a-hydroxy-7-methylene-2,3,4,4a,5,6,7,7a-octahydro-1H-4,12-methanobenzofuro[3,2-e]isoquinolin-9-yl)oxy)methyl tetradecyl carbonate]
% remaining at time point ([1]; 0 min): 100%
% remaining at time point ([1]; 15 min): 82.6%
% remaining at time point ([1]; 120 min): 69.3%
% remaining at time point ([1]; 480 min): 62.2%
% remaining at time point ([1]; 1440 min): 51.7%
Approximate Solubility (mg/mL) in Excipient: Cottonseed oil [3]: >414 mg/mL
Equilibrium solubility (mg/mL) Water [4]: <0.001 mg/mL

CCCCCCCCCCCCCC(=O)Oc1ccc2c3c1O[C@H]1C(=O)CC[C@@]4(O)C(C2)N(CC2CC2)CC[C@]314 [Compound 57, (4aS,7aR,12bS)-3-(cyclopropylmethyl)-4a-hydroxy-7-oxo-2,3,4,4a,5,6,7,7a-octahydro-1H-4,12-methanobenzofuro[3,2-e]isoquinolin-9-yl tetradecanoate]
% remaining at time point ([1]; 0 min): 100%
% remaining at time point ([1]; 15 min): 10.5%
% remaining at time point ([1]; 120 min): 3.2%
% remaining at time point ([1]; 480 min): 1.2%
% remaining at time point ([1]; 1440 min): 0%
Approximate Solubility (mg/mL) in Excipient: Cottonseed oil [3]: >423.7 mg/mL
Approximate Solubility (mg/mL) in Excipient: Sesame oil [3]: >417.3 mg/mL
Equilibrium solubility (mg/mL) Water [4]: <0.001 mg/mL

C=C1CC[C@@]2(O)C3Cc4ccc(OC(=O)CCCCCCC/C=C\CCCCCCCC)c5c4[C@@]2(CCN3CC2CC2)[C@H]1O5 [Compound 36, (4aS,7aS,12bS)-3-(cyclopropylmethyl)-4a-hydroxy-7-methylene-2,3,4,4a,5,6,7,7a-octahydro-1H-4,12-methanobenzofuro[3,2-e]isoquinolin-9-yl oleate]
% remaining at time point ([1]; 0 min): 100%
% remaining at time point ([1]; 15 min): 74.4%
% remaining at time point ([1]; 120 min): 66.3%
% remaining at time point ([1]; 480 min): 39.8%
% remaining at time point ([1]; 1440 min): 19.1%
Approximate Solubility (mg/mL) in Excipient: Castor oil (Castor oil, heating temp. 40 °C, obs. temp. 40 °C): >217 mg/mL
Approximate Solubility (mg/mL) in Excipient: Cottonseed oil [4]: >418.7 mg/mL
Approximate Solubility (mg/mL) in Excipient: Cottonseed oil [3]: >407 mg/mL
Approximate Solubility (mg/mL) in Excipient: Ethanol [4]: 20 to 30 mg/mL
Approximate Solubility (mg/mL) in Excipient: Sesame oil [4]: >411.6 mg/mL
Approximate Solubility (mg/mL) in Excipient: Sesame oil [3]: >408 mg/mL

CCCCC/C=C\C/C=C\CCCCCCCC(=O)Oc1ccc2c3c1O[C@H]1C(=O)CC[C@@]4(O)C(C2)N(CC2CC2)CC[C@]314 [Compound 53, (4aS,7aR,12bS)-3-(cyclopropylmethyl)-4a-hydroxy-7-oxo-2,3,4,4a,5,6,7,7a-octahydro-1H-4,12-methanobenzofuro[3,2-e]isoquinolin-9-yl (9Z,12Z)-octadeca-9,12-di.enoate]
% remaining at time point ([1]; 0 min): 100%
% remaining at time point ([1]; 15 min): 46.85%
% remaining at time point ([1]; 120 min): 19.6%
% remaining at time point ([1]; 480 min): 7.3%
% remaining at time point ([1]; 1440 min): 1.9%
Approximate Solubility (mg/mL) in Excipient: Cottonseed oil [3]: >408.5 mg/mL
Approximate Solubility (mg/mL) in Excipient: Sesame oil [3]: >401.9 mg/mL
Approximate Solubility (mg/mL) in Excipient: Sesame oil [5]: >406.3 mg/mL

CCCCCCCCCCCCCCCCCC(=O)Oc1ccc2c3c1O[C@H]1C(=O)CC[C@@]4(O)C(C2)N(CC2CC2)CC[C@]314 [Compound 54, (4aS,7aR,12bS)-3-(cyclopropylmethyl)-4a-hydroxy-7-oxo-2,3,4,4a,5,6,7,7a-octahydro-1H-4,12-methanobenzofuro[3,2-e]isoquinolin-9-yl stearate]
% remaining at time point ([1]; 0 min): 100%
% remaining at time point ([1]; 15 min): 98.8%
% remaining at time point ([1]; 120 min): 62.4%
% remaining at time point ([1]; 480 min): 45.6%
% remaining at time point ([1]; 1440 min): 19.4%
Approximate Solubility (mg/mL) in Excipient: Cottonseed oil [3]: <51 mg/mL
Approximate Solubility (mg/mL) in Excipient: Sesame oil [3]: <50 mg/mL
Equilibrium solubility (mg/mL) Water [4]: <0.001 mg/mL

C=C1CC[C@@]2(O)C3Cc4ccc(OC(=O)CCCCCCCCCCCCCCCCCCC)c5c4[C@@]2(CCN3CC2CC2)[C@H]1O5 [Compound 16, (4aS,7aS,12bS)-3-(cyclopropylmethyl)-4a-hydroxy-7-methylene-2,3,4,4a,5,6,7,7a-octahydro-1H-4,12-methanobenzofuro[3,2-e]isoquinolin-9-yl icosanoate]
Approximate Solubility (mg/mL) in Excipient: Cottonseed oil [4]: 57 to 67 mg/mL
Approximate Solubility (mg/mL) in Excipient: Cottonseed oil [5]: 201 to 403 mg/mL
Approximate Solubility (mg/mL) in Excipient: Ethanol [4]: <25 mg/mL
Approximate Solubility (mg/mL) in Excipient: Sesame oil [4]: 68 to 81 mg/mL
Approximate Solubility (mg/mL) in Excipient: Sesame oil [5]: 202 to 404 mg/mL
Dry method and appearance ([2]; Acetone): Evaporation/white powder
XRPD results (Dried) ([2]; Acetone): Pattern A
Visual observation 50° C. ([2]; Acetone): Clear
Visual observation RT ([2]; Acetone): Slurry
Dry method and appearance ([2]; EtOAc): Evaporation/white powder
XRPD results (Dried) ([2]; EtOAc): Pattern A
Visual observation 50° C. ([2]; EtOAc): Clear
Visual observation RT ([2]; EtOAc): Slurry
Dry method and appearance ([2]; Heptane): Centrifugation/white powder
XRPD results (Dried) ([2]; Heptane): Pattern A
Visual observation 50° C. ([2]; Heptane): Slurry
Visual observation RT ([2]; Heptane): Slurry
Dry method and appearance ([2]; Isopropanol): Centrifugation/white powder
XRPD results (Dried) ([2]; Isopropanol): Pattern A
Visual observation 50° C. ([2]; Isopropanol): Slurry
Visual observation RT ([2]; Isopropanol): Slurry
Dry method and appearance ([2]; MTBE): Evaporation/white powder
XRPD results (Dried) ([2]; MTBE): Pattern A
Visual observation 50° C. ([2]; MTBE): Clear
Visual observation RT ([2]; MTBE): Clear

CCCCCCCCOC(=O)Oc1ccc2c3c1O[C@H]1C(=O)CC[C@@]4(O)C(C2)N(CC2CC2)CC[C@]314 [Compound 23, (4aS,7aR,12bS)-3-(cyclopropylmethyl)-4a-hydroxy-7-oxo-2,3,4,4a,5,6,7,7a-octahydro-1H-4,12-methanobenzofuro[3,2-e]isoquinolin-9-yl octyl carbonate]
% remaining at time point ([1]; 0 min): 100%
% remaining at time point ([1]; 15 min): 0%
% remaining at time point ([1]; 120 min): 0%
% remaining at time point ([1]; 480 min): 0%
% remaining at time point ([1]; 1440 min): 0%

C=C1CC[C@@]2(O)C3Cc4ccc(OC(=O)OCCCCCCCC)c5c4[C@@]2(CCN3CC2CC2)[C@H]1O5 [Compound 17, (4aS,7aS,12bS)-3-(cyclopropylmethyl)-4a-hydroxy-7-methylene-2,3,4,4a,5,6,7,7a-octahydro-1H-4,12-methanobenzofuro[3,2-e]isoquinolin-9-yl octyl carbonate]
% remaining at time point ([1]; 0 min): 100%
% remaining at time point ([1]; 15 min): 0%
% remaining at time point ([1]; 120 min): 0%
% remaining at time point ([1]; 480 min): 0%
% remaining at time point ([1]; 1440 min): 0%

Enalapril maleate salt [reference compound]
% remaining at time point ([1]; 0 min): 100%
% remaining at time point ([1]; 15 min): 44%
% remaining at time point ([1]; 120 min): 2.9%
% remaining at time point ([1]; 480 min): 8.2%
% remaining at time point ([1]; 1440 min): 4.8%
